For the test, the target named is TAAR1 (Mus musculus (Mouse), UniProt Q923Y8). Description: Radioligand binding assay on TAAR1 (membranes of stably transfected HEK293 cells). The conditions noted are these: competition with [3H]-rac-2-(1,2,3,4-tetrahydro-1-naphthyl)-2-imidazoline, 4° C., 30 min. On the procedure:
For the construction of expression plasmids the coding sequences of human, rat and mouse TAAR 1 were amplified from genomic DNA essentially as described by Lindemann et al.. The Expand High Fidelity PCR System (Roche Diagnostics) was used with 1.5 mM Mg^2+ and purified PCR products were cloned into pCR2.1—TOPO cloning vector (Invitrogen) following the instructions of the manufacturer. PCR products were subcloned into the pIRESneo2 vector (BD Clontech, Palo Alto, Calif.), and expression vectors were sequence verified before introduction in cell lines.
HEK293 cells (ATCC # CRL-1573) were cultured essentially as described Lindemann et al. (2005). For the generation of stably transfected cell lines HEK293 cells were transfected with the pIRESneo2 expression plasmids containing the TAAR coding sequences (described above) with Lipofectamine 2000 (Invitrogen) according to the instructions of the manufacturer, and 24 hrs post transfection the culture medium was supplemented with 1 mg/ml G418 (Sigma, Buchs, Switzerland). After a culture period of about 10 d clones were isolated, expanded and tested for responsiveness to trace amines (all compounds purchased from Sigma) with the cAMP Biotrak Enzyme immunoassay (EIA) System (Amersham) following the non-acetylation EIA procedure provided by the manufacturer. […] Membrane Preparation and Radioligand Binding
Cells at confluence were rinsed with ice-cold phosphate buffered saline without Ca^2+ and Mg^2+ containing 10 mM EDTA and pelleted by centrifugation at 1000 rpm for 5 min at 4° C. The pellet was then washed twice with ice-cold phosphate buffered saline and cell pellet was frozen immediately by immersion in liquid nitrogen and stored until use at −80° C. Cell pellet was then suspended in 20 ml HEPES-NaOH (20 mM), pH 7.4 containing 10 mM EDTA, and homogenized with a Polytron (PT 3000, Kinematica) at 10,000 rpm for 10 s. The homogenate was centrifuged at 48,000×g for 30 min at 4° C. and the pellet resuspended in 20 ml HEPES-NaOH (20 mM), pH 7.4 containing 0.1 mM EDTA (buffer A), and homogenized with a Polytron at 10,000 rpm for 10 s. The homogenate was then centrifuged at 48,000×g for 30 min at 4° C. and the pellet resuspended in 20 ml buffer A, and homogenized with a Polytron at 10,000 rpm for 10 s. Protein concentration was determined by the method of Pierce (Rockford, Ill.). The homogenate was then centrifuged at 48,000×g for 10 min at 4° C., resuspended in HEPES-NaOH (20 mM), pH 7.0 including MgCl2 (10 mM) and […] homogenized with a Polytron at 10,000 rpm for 10 s.
Binding assay was performed at 4° C. in a final volume of 1 ml, and with an incubation time of 30 min. The radioligand [^3H]-rac-2-(1,2,3,4-tetrahydro-1-naphthyl)-2-imidazoline was used at a concentration equal to the calculated Kd value of 60 nM to give a bound at around 0.1% of the total added radioligand concentration, and a specific binding which represented approximately 70-80% of the total binding. Non-specific binding was defined as the amount of [^3H]-rac-2-(1,2,3,4-tetrahydro-1-naphthyl)-2-imidazoline bound in the presence of the appropriate unlabelled ligand (10 μM). Competing ligands were tested in a wide range of concentrations […]. […] Each experiment was performed in duplicate. All incubations were terminated by rapid filtration through UniFilter-96 plates (Packard Instrument Company) and glass filter GF/C, pre-soaked for at least 2 h in polyethylenimine 0.3%, and using a Filtermate 96 Cell Harvester (Packard Instrument Company). The tubes and filters were then washed 3 times with 1 ml aliquots of cold buffer B. Filters were not dried and soaked in Ultima gold (45 μl/well, Packard Instrument Company) and bound radioactivity was counted by a TopCount Microplate Scintillation Counter (Packard Instrument Company).
Sequence of TAAR1 (Q923Y8 whole entry): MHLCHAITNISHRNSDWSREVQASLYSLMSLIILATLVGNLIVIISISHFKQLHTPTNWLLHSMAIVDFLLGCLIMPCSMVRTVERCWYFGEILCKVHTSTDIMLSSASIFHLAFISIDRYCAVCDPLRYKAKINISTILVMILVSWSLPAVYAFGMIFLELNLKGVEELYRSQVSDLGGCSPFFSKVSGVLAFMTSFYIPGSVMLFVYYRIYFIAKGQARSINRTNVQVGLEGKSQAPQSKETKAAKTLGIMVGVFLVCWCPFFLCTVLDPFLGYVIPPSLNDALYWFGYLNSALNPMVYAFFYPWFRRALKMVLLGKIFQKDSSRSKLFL
In general, Ki refers to a dissociation constant, usually derived from enzyme kinetics or from competition with a known ligand. Low readings indicate a stronger hold on the target, high ones a looser hold on the target. `NC1=N[C@@H](CCC2(c3ccc(Br)cc3)CC2)CO1` [Example 144, (S)-4-{2-[1-(4-Bromo-phenyl)-cyclopropyl]-ethyl}-4,5-dihydro-oxazol-2-ylamine] yielded a Ki of 0.0005 µM.

The compound `NC1=N[C@@H](CCC2(c3cc(F)cc(Cl)c3)CC2)CO1` [Example 143, (S)-4-{2-[1-(3-Chloro-5-fluoro-phenyl)-cyclopropyl]-ethyl}-4,5-dihydro-oxazol-2-ylamine] gave a Ki of 0.0009 µM.

`CC[C@@H](C[C@H]1COC(N)=N1)Oc1ccc(Cl)c(Cl)c1` [Example 122, (S)-4-[(S)-2-(3,4-Dichloro-phenoxy)-butyl]-4,5-dihydro-oxazol-2-ylamine] came in with a Ki of 0.0007 µM.

In turn, `COC(=O)c1cccc(OCC[C@H]2COC(N)=N2)c1` [Example 127, 3-[2-((S)-2-Amino-4,5-dihydro-oxazol-4-yl)-ethoxy]-benzoic acid methyl ester] showed a Ki of 0.008 µM.

Take `C[C@H](C[C@H]1COC(N)=N1)Oc1cccc(Cl)c1` [Example 84, (S)-4-[(R)-2-(3-Chloro-phenoxy)-propyl]-4,5-dihydro-oxazol-2-ylamine]: the Ki was determined as 0.0076 µM. The Ki values of the last two compounds are within 1.5-fold of each other.

Turning to `CC[C@@H](C[C@H]1COC(N)=N1)Oc1ccccc1` [Example 109, (S)-4-((S)-2-Phenoxy-butyl)-4,5-dihydro-oxazol-2-ylamine], the Ki was determined as 0.0016 µM.

As for `CC(C)(CC[C@H]1COC(N)=N1)c1ccccc1` [Example 7, (S)-4-(3-Methyl-3-phenyl-butyl)-4,5-dihydro-oxazol-2-ylamine], affinity was put at a Ki of 0.0032 µM.

Compound `NC1=N[C@@H](CCOc2ccc(F)c(Cl)c2)CO1` [Example 8, (S)-4-[2-(3-Chloro-4-fluoro-phenoxy)-ethyl]-4,5-dihydro-oxazol-2-ylamine] registered a Ki of 0.0002 µM.

With `CC(C)c1cccc(OCC[C@H]2COC(N)=N2)c1` [Example 21, (S)-4-[2-(3-Isopropyl-phenoxy)-ethyl]-4,5-dihydro-oxazol-2-ylamine], the Ki was found to be 0.0017 µM.

With `NC1=N[C@@H](CCC2(c3ccc(F)cc3F)CC2)CO1` [Example 89, (S)-4-{2-[1-(2,4-Difluoro-phenyl)-cyclopropyl]-ethyl}-4,5-dihydro-oxazol-2-ylamine], the affinity corresponds to a Ki of 0.0059 µM. This Ki is about 3.5-fold higher than that of the compound before.

On to `C[C@@H](C[C@H]1COC(N)=N1)Oc1ccc(F)c(F)c1` [Example 69, (S)-4-[(S)-2-(3,4-Difluoro-phenoxy)-propyl]-4,5-dihydro-oxazol-2-ylamine], for which affinity was put at a Ki of 0.008 µM.

In turn, `NC1=N[C@@H](CCOc2cccc(Cl)c2)CO1` [Example 5, (S)-4-[2-(3-Chloro-phenoxy)-ethyl]-4,5-dihydro-oxazol-2-ylamine] displayed an inhibition constant Ki of 0.0003 µM.

As to `NC1=N[C@@H](CCC2(c3ccc(Cl)cc3)CCC2)CO1` [Example 110, (S)-4-{2-[1-(4-Chloro-phenyl)-cyclobutyl]-ethyl}-4,5-dihydro-oxazol-2-ylamine], the affinity corresponds to a Ki of 0.0059 µM.

For the compound `NC1=N[C@@H](CCOc2ccc(C(F)(F)F)cc2)CO1` [Example 88, (S)-4-[2-(4-Trifluoromethyl-phenoxy)-ethyl]-4,5-dihydro-oxazol-2-ylamine], the affinity corresponds to a Ki of 0.0048 µM.

In turn, `NC1=N[C@@H](CCOc2cc(F)cc(F)c2)CO1` [Example 130, (S)-4-[2-(3,5-Difluoro-phenoxy)-ethyl]-4,5-dihydro-oxazol-2-ylamine] showed an inhibition constant Ki of 0.0007 µM.

As for `C[C@@H](CC[C@H]1COC(N)=N1)c1ccc(F)cc1` [Example 115, (S)-4-[(S)-3-(4-Fluoro-phenyl)-butyl]-4,5-dihydro-oxazol-2-ylamine], the affinity corresponds to a Ki of 0.0031 µM.

On to `NC1=N[C@@H](CCOc2ccc(-c3ccc(F)cc3)cc2)CO1` [Example 48, (S)-4-[2-(4′-Fluoro-biphenyl-4-yloxy)-ethyl]-4,5-dihydro-oxazol-2-ylamine], for which the affinity corresponds to a Ki of 0.0016 µM.

`C[C@@H](C[C@H]1COC(N)=N1)Oc1ccc(Oc2ccccc2)cc1` [Example 79, (S)-4-[(S)-2-(4-Phenoxy-phenoxy)-propyl]-4,5-dihydro-oxazol-2-ylamine] showed an inhibition constant Ki of 0.0086 µM.

Turning to `C[C@@H](C[C@H]1COC(N)=N1)Oc1ccc(Br)cc1` [Example 71, (S)-4-[(S)-2-(4-Bromo-phenoxy)-propyl]-4,5-dihydro-oxazol-2-ylamine], the inhibition constant (Ki) came to 0.0024 µM.

Compound `CC(C)(CC[C@H]1COC(N)=N1)c1ccc(F)cc1` [Example 25, (S)-4-[3-(4-Fluoro-phenyl)-3-methyl-butyl]-4,5-dihydro-oxazol-2-ylamine] registered a Ki of 0.003 µM.

Compound `NC1=N[C@@H](CCOc2ccc(F)cc2F)CO1` [Example 11, (S)-4-[2-(2,4-Difluoro-phenoxy)-ethyl]-4,5-dihydro-oxazol-2-ylamine] displayed a Ki of 0.0011 µM.

Compound `COc1ccc(OCC[C@H]2COC(N)=N2)cc1` [Example 59, (S)-4-[2-(4-Methoxy-phenoxy)-ethyl]-4,5-dihydro-oxazol-2-ylamine] came in with a Ki of 0.0076 µM.

Consider `C[C@@H](C[C@H]1COC(N)=N1)Oc1ccccc1` [Example 81], for which the inhibition constant (Ki) was determined as 0.0064 µM.

In turn, `CC[C@@H](C[C@H]1COC(N)=N1)Oc1ccc(C(F)(F)F)cc1` [Example 121, (S)-4-[(S)-2-(4-Trifluoromethyl-phenoxy)-butyl]-4,5-dihydro-oxazol-2-ylamine] registered an inhibition constant Ki of 0.0038 µM.

On to `C[C@H](OC[C@H]1COC(N)=N1)c1ccc(F)cc1` [Example 155, (S)-4-[(S)-1-(4-Fluoro-phenyl)-ethoxymethyl]-4,5-dihydro-oxazol-2-ylamine], for which the Ki was determined as 0.0032 µM. This Ki and that of the compound before are within 1.5-fold of each other.

On to `CC[C@@H](C[C@H]1COC(N)=N1)Oc1ccc2ncccc2c1` [Example 159, (S)-4-[(S)-2-(Quinolin-6-yloxy)-butyl]-4,5-dihydro-oxazol-2-ylamine], for which the inhibition constant Ki stood at 0.0063 µM. This Ki lies about 2-fold higher than the previous one.

With `NC1=N[C@@H](CCC2(c3ccc(F)c(Cl)c3)CC2)CO1` [Example 91, (S)-4-{2-[1-(3-Chloro-4-fluoro-phenyl)-cyclopropyl]-ethyl}-4,5-dihydro-oxazol-2-ylamine], the Ki was determined as 0.0006 µM.

As for `NC1=N[C@@H](CCOc2cccc(OC(F)(F)F)c2)CO1` [Example 19, (S)-4-[2-(3-Trifluoromethoxy-phenoxy)-ethyl]-4,5-dihydro-oxazol-2-ylamine], the Ki came to 0.0021 µM.

For the compound `C[C@@H](C[C@H]1COC(N)=N1)Oc1ccc(F)cc1F` [Example 74, (S)-4-[(S)-2-(2,4-Difluoro-phenoxy)-propyl]-4,5-dihydro-oxazol-2-ylamine], the Ki came out at 0.004 µM. This Ki is about 1.9-fold higher than that of the compound before.

`CC[C@@H](C[C@H]1COC(N)=N1)Oc1ccc(Cl)cc1Cl` [Example 158, (S)-4-[(S)-2-(2,4-Dichloro-phenoxy)-butyl]-4,5-dihydro-oxazol-2-ylamine] gave an inhibition constant (Ki) of 0.0011 µM. Compared with the last compound, the Ki is about 3.6-fold lower.

Take `NC1=N[C@@H](CCOc2ccc(Cl)c(F)c2)CO1` [Example 54, (S)-4-[2-(4-Chloro-3-fluoro-phenoxy)-ethyl]-4,5-dihydro-oxazol-2-ylamine]: the affinity corresponds to a Ki of 0.0014 µM. The Ki values of the last two compounds are within 1.5-fold of each other.

With `NC1=N[C@@H](CCC2(c3cc(F)cc(F)c3)CC2)CO1` [Example 142, (S)-4-{2-[1-(3,5-Difluoro-phenyl)-cyclopropyl]-ethyl}-4,5-dihydro-oxazol-2-ylamine], the Ki is 0.0013 µM.

`NC1=N[C@@H](CCOc2cccc(C(F)(F)F)c2)CO1` [Example 4, (S)-4-[2-(3-Trifluoromethyl-phenoxy)-ethyl]-4,5-dihydro-oxazol-2-ylamine]: the inhibition constant (Ki) was 0.0009 µM. This Ki and that of the compound before are within 1.5-fold of each other.

The compound `NC1=N[C@@H](CCOc2ccc(F)c(F)c2)CO1` [Example 9, (S)-4-[2-(3,4-Difluoro-phenoxy)-ethyl]-4,5-dihydro-oxazol-2-ylamine] returned an inhibitory constant (Ki) of 0.0012 µM. This Ki and that of the compound before are within 1.5-fold of each other.
